Source: patent publication US20230218629A1, “THERAPEUTIC COMPOSITIONS AND METHODS FOR PREVENTION AND TREATMENT OF DIASTOLIC DYSFUNCTION” (AMBETEX PTY LTD, priority 2019, published 2023)

Assays:
Type in all cases: in vivo
Male C57BL6 mice [1] = assay: Aβ42 administration study: GTT with glucose tracers, cardiac metabolism
Description: At 12 weeks of age, mice were grouped according to body mass and composition, determined by EchoMRI. […] An i.p. glucose tolerance test (GTT) was performed on the final treatment day following an overnight fast. Mice were administered 2 g/kg lean mass of glucose including radioactive glucose tracers, prepared as follows. 100 μl of 1 μCi/μl glucose analogue, [^3H]-2-deoxyglucose (2-DOG), and 500 μl of 200 μCi/mL U-^14C glucose were evaporated to dryness before redissolving the radioactive tracers in 1 mL of 50% glucose. This produced a 50% glucose solution containing 100 μCi/mL [^3H]-2-DOG and 100 μCi/mL U-^14C glucose. The tail tip of each mouse was cut off and the blood glucose concentration of a blood sample was measured using an AccuCheck II glucometer (Roche). The GTT was initiated via intraperitoneal injection of the radiolabelled glucose solution (2 g/kg body weight, 10 uCi/animal) into the overnight-fasted mice. Further blood samples were taken at 15, 30, 45, 60 and 90 minutes after the injection for the measurement of blood glucose. Blood samples (30 μl) were also taken from the tail tip at each time point and diluted in 100 μl of saline. These samples were then centrifuged and the supernatant collected. 50 μl of the supernatant was diluted in 500 μl of distilled water and then suspended in 4 mL of Ultima Gold XR scintillation fluid (Packard Bioscience). Blood radioactivity was determined at each time point by performing liquid scintillation counting on each solution using the Beckman scintillation counter (LS6000 SC). At the conclusion of the GTT, mice were killed via cervical dislocation. Blood was obtained immediately following by cardiac puncture and the heart, and other tissues were immediately removed. Hearts were washed in ice cold PBS and weighed prior to being snap frozen in liquid nitrogen. The heart (30 mg), epididymal fat pad (30 mg and quadriceps skeletal muscle (30 mg) were homogenised in 1.5 ml of distilled water. The homogenate was centrifuged at 3000 rpm for 10 min at 4° C. 400 μl of the supernatant was diluted into 1.6 mL of distilled water and then suspended in 14 mL of Ultima Gold XR scintillation fluid (Packard Bioscience). The radioactivity of each sample (from both [3H]-2-DOG6P and [^3H]-2-DOG) was determined by liquid scintillation counting using the Beckman scintillation counter (LS6000 SC). The ^3H radioactivity was used to measure glucose uptake into each tissue.
To determine the incorporation of U-^14C glucose into triglyceride and the total triglyceride content in the heart, an extraction of triglyceride was carried out using a chloroform/methanol mixture. Samples of heart (30 mg) were hand-homogenised in 2 mL of chloroform/methanol (2:1) and the homogeniser rinsed in a further 2 mL of chloroform/methanol (2:1), and the washings being added to the original extract in 10 mL tubes. The tubes were tightly capped and mixed on a rotator overnight to maximise extraction of the triglycerides. 2 ml of 0.6% saline was then added, to facilitate the separation of the organic and aqueous phases, after which the tubes were mixed thoroughly and then centrifuged at 2000 rpm for 10 minutes. […] The amount of U-^14C glucose clearance into the lipid fraction was measured by suspending 100 μl of the triglyceride solution in 5 mL of Ultima Gold XR scintillation fluid (Packard Bioscience), followed by scintillation counting using the Beckman scintillation counter (LS6000 SC).

Male C57BL6 mice [2] = assay: Aβ42 administration study: cardiac function by echocardiography
Description: (§1) After 4 weeks of peptide administration, cardiac function was assessed by echocardiography as follows. Mice were anaesthetised with inhalation of 1.5% isoflurane anaesthesia and echocardiography was performed using the Phillips HD15 diagnostic ultrasound system with a 15 MHz linear-array transducer by an experienced veterinarian. The velocity of blood flow through the mitral valve was analysed using Doppler mode imaging. […] Doppler imaging was also utilised to measure the velocity of blood flow through the aortic valve. The measurements were then used to calculate the ejection time, peak aortic flow and heart rate. M-mode imaging of the left ventricle was used to measure the thickness of the inter-ventricular septum (IVS), left ventricular internal diameter (LVID) and left ventricular posterior wall (LVPW) in both diastole (d) and end-systole (s) as well as systolic measures such as ejection fraction and fractional shortening. An estimation of LV mass was calculated from the m-mode imaging by using the formula (1.05[LVIDd+LVPWd+IVSd]^3−[LVIDd]^3) by Troy et al. (1972). Mice were humanely killed by cervical dislocation 1 week later. Blood was obtained immediately following by cardiac puncture and the heart, and other tissues were immediately removed. Hearts were washed in ice cold PBS and weighed prior to being snap frozen in liquid nitrogen.

Male C57BL6 mice [3] = assay: Aβ40 administration study
Description: as §1, with “Aβ40 administration study: Lyophilised recombinant Aβ40 (Millipore) and scrambled control peptide (ScrAβ40; Millipore) were resuspended in 1% NH4OH and aliquoted at 200 ng/ml in H2O and stored at −80° C. for no longer than 4 weeks. Male C57BL6 mice were obtained from the Animal Resource Centre (Perth, Wash.) at 4 weeks of age and housed with 4 mice per cage on a 12 hr light/dark cycle at a temperature of 22° C. and a constant humidity with a normal rodent diet. At 12 weeks of age, mice were grouped according to body mass and composition, determined by EchoMRI. Mice were then administered 1 μg of recombinant Aβ40 or ScrAβ40 (n=12/group per cohort) by i.p. injection once/day for 5 wks. After” for “After”, “nitrogen. Plasma Aβ40 was measured using a high sensitivity ELISA kit (Wako Diagnostics) and plasma that was diluted 1:10 with assay buffer.” for “nitrogen.”

obese mice (HFD) = assay: Verubecestat-High fat diet (HFD) treatment study
Description: Verubecestat-High fat diet (HFD) treatment study: At 12 weeks of age, mice (n=30) were placed on a HFD with 43% of calories from fat (23.5% by weight; SF04-001 High Fat Rodent Diet Based on D12451, Specialty Feeds, Glen Forrest, Wash.). After 13 weeks of the diet period, echocardiography was performed on all mice to obtain pre-drug treatment measures of cardiac function. Mice were allocated to treatment groups so that measures of cardiac function and morphology were matched as best as possible. Verubecestat (MedChemExpress) was resuspended in 100% DMSO before being diluted in a hydroxypropyl cellulose solution to give a final solution containing 6.25 mg/mL Verubecestat in 10% hydroxypropyl cellulose and 5% DMSO. A vehicle solution containing 10% hydroxypropyl cellulose and 5% DMSO was also made. Aliquots of both drug and vehicle were stored at −80° C. until required. The HFD/Verubecestat group was administered 25 mg/kg of Verubecestat per day by oral gavage, while the HFD/control group received an equivalent volume of vehicle. Echocardiography was then performed following 4 weeks of the treatment period to obtain post-drug treatment measures of cardiac function. Following 5 weeks of the drug administration, mice were humanely killed via cervical dislocation and blood was immediately obtained via cardiac puncture and stored in a heparinised tube. The heart, epididymal fat pad, mesenteric fat pad, liver, quadricep, hind limb and brain were then immediately dissected. The heart was blotted prior to being weighed and all tissues were snap frozen in liquid nitrogen and stored at −80° C. Plasma Aβ species were measured using high sensitivity ELISA kits (Wako Diagnostics) and plasma that was diluted 1:10 with assay buffer.

## Aβ42: Lyophilised recombinant Aβ42 (Millipore), amyloid beta peptide of 42 amino acids
Male C57BL6 mice [1]; 1 μg/day i.p., five weeks, FIG. 1A
  increase in plasma Aβ42 compared with administration of ScrAβ42: approximately 3 fold
Male C57BL6 mice [1]; FIG. 1E
  cardiac gene expression (inflammation, endoplasmic reticulum stress): gene expression changes indicative of cardiac stress responses
Male C57BL6 mice [1]; after five weeks of peptide administration, vs ScrAβ42
  whole body glucose tolerance or plasma insulin throughout the GTT: no difference
Male C57BL6 mice [1]; heart, FIG. 1C
  glucose incorporation into TAG (14C-glucose labelling): greater
Male C57BL6 mice [1]; heart, FIG. 1D
  total TAG: increased
Male C57BL6 mice [2]; FIG. 2B
  internal dimensions of the left ventricle (LVIDd): no effect
Male C57BL6 mice [2]; FIG. 2D
  deceleration time: increased
Male C57BL6 mice [2]; FIG. 2F
  fractional shortening: reduced
Male C57BL6 mice [2]; FIG. 2G
  ejection fraction: reduced
Male C57BL6 mice [2]; between groups, FIG. 2E
  E normalised by isovolumetric relaxation time (IVRT): no significant difference
Male C57BL6 mice [2]; five weeks Aβ42 vs ScrAβ42, FIG. 2A
  gross heart weight: no effect

## Aβ40: Lyophilised recombinant Aβ40 (Millipore), amyloid beta peptide
Male C57BL6 mice [3]; 1 μg/day i.p., 5 weeks, vs ScrAβ40, FIG. 6A
  plasma Aβ40: significantly increased
Male C57BL6 mice [3]; FIG. 6B
  E:A ratio: did not have any effect
Male C57BL6 mice [3]; FIG. 6C
  DT: did not have any effect
Male C57BL6 mice [3]; FIG. 6E
  ejection fraction: nor any effect
Male C57BL6 mice [3]; FIG. 6F
  IVSd: no effect
Male C57BL6 mice [3]; FIG. 6G
  LVIDd: no effect
Male C57BL6 mice [3]; FIG. 6H
  LV mass: no effect

## CN1C(N)=N[C@](C)(c2cc(NC(=O)c3ccc(F)cn3)ccc2F)CS1(=O)=O [Verubecestat, verubecestat]
Obese mice (HFD); 25 mg/kg per day oral gavage, obese mice, FIG. 7A
  plasma Aβ40: decreased
Obese mice (HFD); 25 mg/kg per day oral gavage, obese mice, FIG. 7B
  plasma Aβ42: decreased
Obese mice (HFD); 4 weeks of daily treatment, 25 mg/kg oral, vehicle group 122%, FIG. 7C
  DT after treatment, of baseline levels: 107%
